# *1 amine or outer side, *2 acyl side, *3 side chain or, on linkers, in order; H or OH if unused. Where a SMILES comes first, the peptide text is derived from it. Bridges are numbered along the chain shown (N, C = ends). [ ]: non-standard residue; d: D form. The star is where a group is joined. hPhe(3-Cl-4-CF3) = N[C@@H](CCc1ccc(C(F)(F)F)c(Cl)c1)C(=O)O; NEtPhe(4-CF3) = CCN[C@@H](Cc1ccc(C(F)(F)F)cc1)C(=O)O; NEtPhe(4-Me) = CCN[C@@H](Cc1ccc(C)cc1)C(=O)O; NMePhe(4-Me) = CN[C@@H](Cc1ccc(C)cc1)C(=O)O; X30 = CCN([C@H](C(=O)[*:2])C1CCCC1)[*:1]; NMeGly(cPent) = CN[C@H](C(=O)O)C1CCCC1; NMeD = CN[C@@H](CC(=O)O)C(=O)O; NMeL = CN[C@@H](CC(C)C)C(=O)O; Morpholide = C1CN(*)CCO1; NMeA = CN[C@@H](C)C(=O)O; Ac5c = NC1(C(=O)O)CCCC1; Aze = O=C(O)[C@@H]1CCN1; NEtG = CCNCC(=O)O; Sar = CNCC(=O)O
# Key:
# [1] = system: human lung cancer strain NCI-H441; assay type: cell-based
# Experimental: A test compound was dispensed into a U-bottom 384-well plate as 40 nL serially diluted dimethyl sulfoxide solutions using a liquid handler Echo (LABCYTE). […] This cell suspension was dispensed in an amount of 40 µL per well into a plate containing the test compound, and cultured at 37°C in a 5% carbon dioxide gas incubator. Four days later, 20 µL of CellTiter-Glo (registered trademark) (Promega) was added to each well and […] was measured. […]
# [2] = target: HRAS wild-type protein (Homo sapiens, UniProt P01112); experiment: Binding to HRAS by surface plasmon resonance (SPR), KD and KD ratio to KRAS
# Sequence of HRAS wild-type protein (P01112 whole entry): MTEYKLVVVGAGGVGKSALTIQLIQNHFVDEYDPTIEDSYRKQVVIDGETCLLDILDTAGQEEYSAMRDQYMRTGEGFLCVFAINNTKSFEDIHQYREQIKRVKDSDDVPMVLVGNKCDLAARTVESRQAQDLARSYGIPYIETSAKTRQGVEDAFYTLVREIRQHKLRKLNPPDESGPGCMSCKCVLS
# Experimental: (§1) Surface plasmon resonance was used to analyze the binding affinity of compounds for KRAS, NRAS, and HRAS. The apparatus used was Biacore 8K, 8K+, or T200 (GE Healthcare), and the running buffer used was HBS (10 mM HEPES-NaOH, 150 mM NaCl, pH 7.4) containing 1 mM DTT, 10 mM MgCl2, 0.01% Tween 20, 10 µM GDP, and 4% DMSO.
# (§2) Biotinylated Avi-tag fusion KRAS, NRAS, and HRAS proteins were expressed in E. coli BL21 (DE3) strains, and after cells were homogenized, they were purified using Streptavidin Mutein Matrix and Superdex 75. After purification, GDP-loaded KRAS, NRAS, and HRAS proteins were immobilized on the surface of Sensor Chip CAP (Cytiva) coated with Biotin CAPture Reagent in an immobilization amount of about 100 to 300 RU. Binding of each compound was evaluated by the Single Cycle Kinetics method, and a running buffer or a compound solution was added to the RAS protein non-immobilized surface and the immobilized surface to obtain a binding response. The flow rate was set to 100 µL/min, and in the compound-adding cycle, compound solutions having different concentrations were intermittently added for 75 seconds each, starting from a low concentration. […] In the blank cycle, a running buffer was intermittently added and not the compound solution. The Biotin CAPture Reagent and RAS proteins were immobilized for each cycle, and at the end of each cycle, the sensor chip was regenerated by the regeneration solution appended to the Biotin CAPture Kit (Cytiva). Measurement was carried out at 30°C.
# (§3) The resulting sensorgram was subjected to curve fitting based on a 1:1 binding model on Biacore Insight Evaluation Software or T200 Evaluation Software, and thereby the dissociation constant KD of each compound with respect to KRAS, NRAS, and HRAS was determined. […] Blank indicates a compound from which the KD value with respect to NRAS or HRAS was not obtained.
# [3] = target: GDP-bound NRAS wild-type protein (Homo sapiens, UniProt P01111); experiment: Binding to NRAS by surface plasmon resonance (SPR), KD and KD ratio to KRAS; conditions: ratio of KD for GDP-bound NRAS wild-type protein to KD for KRAS
# Sequence of GDP-bound NRAS wild-type protein (P01111 whole entry): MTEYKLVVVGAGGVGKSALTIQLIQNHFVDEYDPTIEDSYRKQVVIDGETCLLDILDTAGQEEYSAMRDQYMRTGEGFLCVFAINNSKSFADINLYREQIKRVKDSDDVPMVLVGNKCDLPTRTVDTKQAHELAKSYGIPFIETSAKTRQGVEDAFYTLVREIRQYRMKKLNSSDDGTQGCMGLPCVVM
# Experimental: as §1, §2, §3
# [4] = ratio of KD for HRAS wild-type protein to KD for KRAS
Compound,IC50 [1] [µM],"HRAS /KRAS [2, 4]",NRAS /KRAS [3],HRAS /KRAS ([2]; ratio of KD value for HRAS wild-type protein to KD value for KRAS (SPR)),HRAS /KRAS ([2]; ratio of the KD value with respect to HRAS wild-type protein to the KD value with respect to KRAS)
CC[C@H](C)[C@@H]1NC(=O)[C@H](CC(C)C)N(C)C(=O)C[C@@H](C(=O)N2CCOCC2)N(C)C(=O)[C@H](C2CCCC2)N(C)C(=O)C2(CCCC2)NC(=O)[C@@H]2CCCN2C(=O)[C@H](CCc2ccc(C(F)(F)F)c(Cl)c2)NC(=O)CN(C)C(=O)[C@H](Cc2ccc(C)cc2)N(C)C(=O)[C@@H]2CCN2C(=O)[C@H](C)N(C)C1=O [PP0001] ([NMeL]I[NMeA][Aze][NMePhe(4-Me)][Sar][hPhe(3-Cl-4-CF3)]P[Ac5c][NMeGly(cPent)][NMeD]-Morpholide; lactam N-11),0.0063,C (A compound having a KD ratio of 0.1 or more and less than 3 is denoted as C),C (A compound having a KD ratio of 0.1 or more and less than 3 is denoted as C),,
CC[C@H](C)[C@@H]1NC(=O)[C@H](CC(C)C)N(C)C(=O)C[C@@H](C(=O)N2CCOCC2)N(C)C(=O)[C@H](C2CCCC2)N(C)C(=O)C2(CCCC2)NC(=O)[C@@H]2CCCN2C(=O)[C@H](CCc2ccc(C(F)(F)F)c(Cl)c2)NC(=O)CN(C)C(=O)[C@H](Cc2ccc(C(F)(F)F)cc2)N(CC)C(=O)[C@@H]2CCN2C(=O)[C@H](C)N(C)C1=O [PP0002] ([NMeL]I[NMeA][Aze][NEtPhe(4-CF3)][Sar][hPhe(3-Cl-4-CF3)]P[Ac5c][NMeGly(cPent)][NMeD]-Morpholide; lactam N-11),0.0021,C (A compound having a KD ratio of 0.1 or more and less than 3 is denoted as C),C (A compound having a KD ratio of 0.1 or more and less than 3 is denoted as C),,
CC[C@H](C)[C@@H]1NC(=O)[C@H](CC(C)C)N(C)C(=O)C[C@@H](C(=O)N2CCOCC2)N(C)C(=O)[C@H](C2CCCC2)N(C)C(=O)C2(CCCC2)NC(=O)[C@@H]2CCCN2C(=O)[C@H](CCc2ccc(C(F)(F)F)c(Cl)c2)NC(=O)CN(C)C(=O)[C@H](C2CCCC2)N(CC)C(=O)[C@@H]2CCN2C(=O)[C@H](C)N(C)C1=O [PP0003] ([NMeL]I[NMeA][Aze][X30][Sar][hPhe(3-Cl-4-CF3)]P[Ac5c][NMeGly(cPent)][NMeD]-Morpholide; lactam N-11),0.0414,C (A compound having a KD ratio of 0.1 or more and less than 3 is denoted as C),C (A compound having a KD ratio of 0.1 or more and less than 3 is denoted as C),,
CC[C@H](C)[C@@H]1NC(=O)[C@H](CC(C)C)N(C)C(=O)C[C@@H](C(=O)N2CCOCC2)N(C)C(=O)[C@H](C2CCCC2)N(C)C(=O)C2(CCCC2)NC(=O)[C@@H]2CCCN2C(=O)[C@H](CCc2ccc(C(F)(F)F)c(Cl)c2)NC(=O)CN(CC)C(=O)[C@H](Cc2ccc(C)cc2)N(C)C(=O)[C@@H]2CCN2C(=O)[C@H](C)N(C)C1=O [PP0004] ([NMeL]I[NMeA][Aze][NMePhe(4-Me)][NEtG][hPhe(3-Cl-4-CF3)]P[Ac5c][NMeGly(cPent)][NMeD]-Morpholide; lactam N-11),0.0529,C (A compound having a KD ratio of 0.1 or more and less than 3 is denoted as C),C (A compound having a KD ratio of 0.1 or more and less than 3 is denoted as C),,
CC[C@H](C)[C@@H]1NC(=O)[C@H](CC(C)C)N(C)C(=O)C[C@@H](C(=O)N2CCOCC2)N(C)C(=O)[C@H](C2CCCC2)N(C)C(=O)C2(CCCC2)NC(=O)[C@@H]2CCCN2C(=O)[C@H](CCc2ccc(C(F)(F)F)c(Cl)c2)NC(=O)CN(CC)C(=O)[C@H](Cc2ccc(C)cc2)N(CC)C(=O)[C@@H]2CCN2C(=O)[C@H](C)N(C)C1=O [PP0006] ([NMeL]I[NMeA][Aze][NEtPhe(4-Me)][NEtG][hPhe(3-Cl-4-CF3)]P[Ac5c][NMeGly(cPent)][NMeD]-Morpholide; lactam N-11),0.0206,C (A compound having a KD ratio of 0.1 or more and less than 3 is denoted as C),C (A compound having a KD ratio of 0.1 or more and less than 3 is denoted as C),,
CC[C@H](C)[C@@H]1NC(=O)[C@H](C)N(C)C(=O)C[C@@H](C(=O)N2CCOCC2)N(C)C(=O)[C@H](C2CCCC2)N(C)C(=O)C2(CCCC2)NC(=O)[C@@H]2CCCN2C(=O)[C@H](CCc2ccc(C(F)(F)F)c(Cl)c2)NC(=O)CN(C)C(=O)[C@H](Cc2ccc(C)cc2)N(CC)C(=O)[C@@H]2CCN2C(=O)[C@H](C)N(C)C1=O [PP0007] ([NMeA]I[NMeA][Aze][NEtPhe(4-Me)][Sar][hPhe(3-Cl-4-CF3)]P[Ac5c][NMeGly(cPent)][NMeD]-Morpholide; lactam N-11),0.0048,C (A compound having a KD ratio of 0.1 or more and less than 3 is denoted as C),C (A compound having a KD ratio of 0.1 or more and less than 3 is denoted as C),,
CCO[C@@H]1C[C@H]2C(=O)NC3(CCC3)C(=O)N(C)[C@@H](C(CC)CC)C(=O)N3CCC[C@@H]3CC(=O)N(C)[C@@H](CC)C(=O)N[C@@H]([C@@H](C)CC)C(=O)N(C)CC(=O)N(C)[C@H]3C/C=C\CCN(C3=O)[C@@H](Cc3ccc(C(F)(F)F)cc3)C(=O)N(C)CC(=O)N[C@@H](CCc3cc(F)c(C(F)(F)F)c(F)c3)C(=O)N2C1 [PP1607],0.0393,,,A (a compound having 10 or more and less than 20 is denoted as A),
CCO[C@@H]1C[C@H]2C(=O)NC3(CC(C)(C)C3)C(=O)N(C)[C@@H](C3CCCC3)C(=O)N(C)[C@H](C(=O)N(C)CC)CC(=O)N(C)[C@@H](C3CCC3)C(=O)N[C@@H]([C@@H](C)CC)C(=O)N(C)CC(=O)N(C)[C@H]3C/C=C\CCN(C3=O)[C@@H](Cc3ccc(C(F)(F)F)cc3)C(=O)N(C)CC(=O)N[C@@H](CCc3ccc(C(F)(F)F)c(OC)c3)C(=O)N2C1 [PP1985],0.0177,,,,B (a compound having 3 or more and less than 10 is denoted as B)
CCC[C@H]1C(=O)N[C@@H]([C@@H](C)CC)C(=O)N(C)CC(=O)N(C)[C@H]2C/C=C\CCN(C2=O)[C@@H](Cc2ccc(C)cc2)C(=O)N(C)CC(=O)N[C@@H](CCc2ccc(Cl)c(OC)c2)C(=O)N2C[C@H](OCC)C[C@H]2C(=O)NC2(CC(C)(C)C2)C(=O)N(C)[C@@H](C(CC)CC)C(=O)N(C)[C@H](C(=O)N(C)C)CC(=O)N1C [PP2791],0.0898,A (a compound having 10 or more and less than 20 is denoted as A),,,
CCO[C@@H]1C[C@H]2C(=O)NC3(CC(C)(C)C3)C(=O)N(C)[C@@H](C3CCCC3)C(=O)N(C)[C@H](C(=O)N(C)C)CC(=O)N(C)[C@H]3CCCCCCc4ccc(cc4)C[C@@H](C(=O)N(C)CC(=O)N[C@@H](CCc4ccc(C(F)(F)F)c(OC)c4)C(=O)N2C1)N1CC/C=C\C[C@@H](C1=O)N(C)C(=O)CN(C1CC1)C(=O)[C@H]([C@@H](C)CC)NC3=O [PP3070],0.0014,B (a compound having 3 or more and less than 10 is denoted as B),,,
CCC[C@H]1C(=O)N[C@@H]([C@@H](C)CC)C(=O)N(C)CC(=O)N(C)[C@H]2C/C=C\CCN(C2=O)[C@@H](Cc2ccc(C(F)(F)F)cc2)C(=O)N(C)CC(=O)N[C@@H](CCc2ccc(C(F)(F)F)c(OC)c2)C(=O)N2C[C@H](OCC)C[C@H]2C(=O)N(C)C2(CCC2)C(=O)N(C)[C@@H](C2CCCC2)C(=O)N(C)[C@H](C(=O)N2CCCCC2)CC(=O)N1C [PP3103],0.0215,A (a compound having 10 or more and less than 20 is denoted as A),,,
